Measured values as given in patent publication US20220089663A1, “PROTEINS AND FLUOROPHORE-CONTAINING COMPOUNDS SELECTIVE FOR NaV1.7” (MEMORIAL SLOAN KETTERING CANCER CENTER, priority 2019, published 2022).

Tests used:
hNav1.1 = target: T1, hNav1.1 (Homo sapiens, UniProt P35498); assay: automated whole-cell patch clamp (QPatch 16X), HEK293-hNav1.1; type: cell-based; conditions: HEK293 cells stably expressing human channel; read-out: IC50 Nav1.1
T1 construct: host or cells: HEK293

hNav1.2 = target: T2, hNav1.2 (Homo sapiens, UniProt Q99250); assay: automated whole-cell patch clamp (QPatch 16X), HEK293-hNav1.2; type: cell-based; conditions: HEK293 cells stably expressing human channel; read-out: IC50 Nav1.2
T2 construct: host or cells: HEK293

hNav1.3 = target: T3, hNav1.3 (Homo sapiens, UniProt Q9NY46); assay: automated whole-cell patch clamp (QPatch 16X), HEK293-hNav1.3; type: cell-based; conditions: HEK293 cells stably expressing human channel; read-out: IC50 Nav1.3
T3 construct: host or cells: HEK293

hNav1.4 = target: T4, hNav1.4 (Homo sapiens, UniProt P35499); assay: automated whole-cell patch clamp (QPatch 16X), HEK293-hNav1.4; type: cell-based; conditions: HEK293 cells stably expressing human channel; read-out: IC50 Nav1.4
T4 construct: host or cells: HEK293
T4 sequence (P35499 whole entry): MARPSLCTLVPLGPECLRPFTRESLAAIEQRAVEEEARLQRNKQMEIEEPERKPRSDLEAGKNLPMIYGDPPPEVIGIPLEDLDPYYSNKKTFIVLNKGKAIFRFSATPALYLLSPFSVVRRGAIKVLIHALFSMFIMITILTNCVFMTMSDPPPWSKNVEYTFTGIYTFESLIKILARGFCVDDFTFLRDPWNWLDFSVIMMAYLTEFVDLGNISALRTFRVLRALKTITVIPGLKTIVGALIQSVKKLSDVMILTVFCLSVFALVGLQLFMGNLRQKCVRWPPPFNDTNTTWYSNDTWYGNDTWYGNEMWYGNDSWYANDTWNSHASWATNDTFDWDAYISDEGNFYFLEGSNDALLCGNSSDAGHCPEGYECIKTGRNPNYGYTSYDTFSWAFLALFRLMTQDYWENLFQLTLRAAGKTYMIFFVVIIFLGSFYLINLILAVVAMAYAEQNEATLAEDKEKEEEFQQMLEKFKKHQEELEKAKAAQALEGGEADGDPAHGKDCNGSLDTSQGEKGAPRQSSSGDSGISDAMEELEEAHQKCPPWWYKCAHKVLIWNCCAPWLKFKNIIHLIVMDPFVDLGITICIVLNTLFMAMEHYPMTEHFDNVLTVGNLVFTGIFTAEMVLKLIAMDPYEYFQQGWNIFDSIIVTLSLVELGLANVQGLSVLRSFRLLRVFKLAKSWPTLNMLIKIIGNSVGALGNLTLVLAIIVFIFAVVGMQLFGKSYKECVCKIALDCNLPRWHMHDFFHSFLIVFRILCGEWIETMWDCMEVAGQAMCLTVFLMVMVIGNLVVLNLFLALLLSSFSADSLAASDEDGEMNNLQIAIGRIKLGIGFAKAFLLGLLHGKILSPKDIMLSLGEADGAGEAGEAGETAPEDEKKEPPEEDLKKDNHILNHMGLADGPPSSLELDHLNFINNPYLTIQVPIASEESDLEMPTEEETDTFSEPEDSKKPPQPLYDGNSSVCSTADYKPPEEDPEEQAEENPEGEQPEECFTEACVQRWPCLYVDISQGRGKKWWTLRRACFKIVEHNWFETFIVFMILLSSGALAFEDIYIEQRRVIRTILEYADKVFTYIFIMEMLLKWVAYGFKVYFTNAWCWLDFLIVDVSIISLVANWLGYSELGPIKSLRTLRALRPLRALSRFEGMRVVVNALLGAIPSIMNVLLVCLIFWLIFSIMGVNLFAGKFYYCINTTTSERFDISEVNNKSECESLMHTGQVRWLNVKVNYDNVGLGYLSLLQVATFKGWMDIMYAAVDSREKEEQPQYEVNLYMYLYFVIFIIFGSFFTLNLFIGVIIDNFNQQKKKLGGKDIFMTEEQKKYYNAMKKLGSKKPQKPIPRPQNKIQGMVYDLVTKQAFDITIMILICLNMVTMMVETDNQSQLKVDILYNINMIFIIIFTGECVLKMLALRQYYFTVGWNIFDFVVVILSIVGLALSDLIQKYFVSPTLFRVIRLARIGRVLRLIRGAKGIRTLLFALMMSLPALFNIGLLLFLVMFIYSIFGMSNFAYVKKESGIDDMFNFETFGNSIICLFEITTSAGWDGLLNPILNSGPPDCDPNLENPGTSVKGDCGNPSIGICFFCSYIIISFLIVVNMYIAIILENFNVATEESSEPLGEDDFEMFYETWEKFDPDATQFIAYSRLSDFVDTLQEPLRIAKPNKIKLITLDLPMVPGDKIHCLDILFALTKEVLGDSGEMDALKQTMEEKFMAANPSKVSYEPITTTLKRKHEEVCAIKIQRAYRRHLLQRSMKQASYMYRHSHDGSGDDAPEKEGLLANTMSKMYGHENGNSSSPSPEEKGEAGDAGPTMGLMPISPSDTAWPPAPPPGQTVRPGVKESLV
T4 sequence (Q07699 19-218, further chain): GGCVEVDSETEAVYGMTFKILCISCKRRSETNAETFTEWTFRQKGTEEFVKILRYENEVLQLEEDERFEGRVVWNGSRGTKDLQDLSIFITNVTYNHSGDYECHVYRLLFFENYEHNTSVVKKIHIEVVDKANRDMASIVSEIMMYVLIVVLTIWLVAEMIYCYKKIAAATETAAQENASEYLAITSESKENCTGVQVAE

hNav1.5 = target: T5, hNav1.5 (Homo sapiens, UniProt Q14524); assay: automated whole-cell patch clamp (QPatch 16X), HEK293-hNav1.5; type: cell-based; conditions: HEK293 cells stably expressing human channel; read-out: IC50 Nav1.5
T5 construct: host or cells: HEK293

hNav1.6 = target: T6, hNav1.6 (Homo sapiens, UniProt Q9UQD0); assay: automated whole-cell patch clamp (QPatch 16X), HEK293-hNav1.6; type: cell-based; conditions: HEK293 cells stably expressing human channel; read-out: IC50 Nav1.6
T6 construct: host or cells: HEK293

hNav1.7 = target: T7, hNav1.7 (Homo sapiens, UniProt Q15858); assay: automated whole-cell patch clamp (QPatch 16X), HEK293-hNav1.7; type: cell-based; conditions: HEK293 cells stably expressing human channel; read-out: IC50 Nav1.7
T7 construct: host or cells: HEK293
T7 sequence (Q15858 whole entry): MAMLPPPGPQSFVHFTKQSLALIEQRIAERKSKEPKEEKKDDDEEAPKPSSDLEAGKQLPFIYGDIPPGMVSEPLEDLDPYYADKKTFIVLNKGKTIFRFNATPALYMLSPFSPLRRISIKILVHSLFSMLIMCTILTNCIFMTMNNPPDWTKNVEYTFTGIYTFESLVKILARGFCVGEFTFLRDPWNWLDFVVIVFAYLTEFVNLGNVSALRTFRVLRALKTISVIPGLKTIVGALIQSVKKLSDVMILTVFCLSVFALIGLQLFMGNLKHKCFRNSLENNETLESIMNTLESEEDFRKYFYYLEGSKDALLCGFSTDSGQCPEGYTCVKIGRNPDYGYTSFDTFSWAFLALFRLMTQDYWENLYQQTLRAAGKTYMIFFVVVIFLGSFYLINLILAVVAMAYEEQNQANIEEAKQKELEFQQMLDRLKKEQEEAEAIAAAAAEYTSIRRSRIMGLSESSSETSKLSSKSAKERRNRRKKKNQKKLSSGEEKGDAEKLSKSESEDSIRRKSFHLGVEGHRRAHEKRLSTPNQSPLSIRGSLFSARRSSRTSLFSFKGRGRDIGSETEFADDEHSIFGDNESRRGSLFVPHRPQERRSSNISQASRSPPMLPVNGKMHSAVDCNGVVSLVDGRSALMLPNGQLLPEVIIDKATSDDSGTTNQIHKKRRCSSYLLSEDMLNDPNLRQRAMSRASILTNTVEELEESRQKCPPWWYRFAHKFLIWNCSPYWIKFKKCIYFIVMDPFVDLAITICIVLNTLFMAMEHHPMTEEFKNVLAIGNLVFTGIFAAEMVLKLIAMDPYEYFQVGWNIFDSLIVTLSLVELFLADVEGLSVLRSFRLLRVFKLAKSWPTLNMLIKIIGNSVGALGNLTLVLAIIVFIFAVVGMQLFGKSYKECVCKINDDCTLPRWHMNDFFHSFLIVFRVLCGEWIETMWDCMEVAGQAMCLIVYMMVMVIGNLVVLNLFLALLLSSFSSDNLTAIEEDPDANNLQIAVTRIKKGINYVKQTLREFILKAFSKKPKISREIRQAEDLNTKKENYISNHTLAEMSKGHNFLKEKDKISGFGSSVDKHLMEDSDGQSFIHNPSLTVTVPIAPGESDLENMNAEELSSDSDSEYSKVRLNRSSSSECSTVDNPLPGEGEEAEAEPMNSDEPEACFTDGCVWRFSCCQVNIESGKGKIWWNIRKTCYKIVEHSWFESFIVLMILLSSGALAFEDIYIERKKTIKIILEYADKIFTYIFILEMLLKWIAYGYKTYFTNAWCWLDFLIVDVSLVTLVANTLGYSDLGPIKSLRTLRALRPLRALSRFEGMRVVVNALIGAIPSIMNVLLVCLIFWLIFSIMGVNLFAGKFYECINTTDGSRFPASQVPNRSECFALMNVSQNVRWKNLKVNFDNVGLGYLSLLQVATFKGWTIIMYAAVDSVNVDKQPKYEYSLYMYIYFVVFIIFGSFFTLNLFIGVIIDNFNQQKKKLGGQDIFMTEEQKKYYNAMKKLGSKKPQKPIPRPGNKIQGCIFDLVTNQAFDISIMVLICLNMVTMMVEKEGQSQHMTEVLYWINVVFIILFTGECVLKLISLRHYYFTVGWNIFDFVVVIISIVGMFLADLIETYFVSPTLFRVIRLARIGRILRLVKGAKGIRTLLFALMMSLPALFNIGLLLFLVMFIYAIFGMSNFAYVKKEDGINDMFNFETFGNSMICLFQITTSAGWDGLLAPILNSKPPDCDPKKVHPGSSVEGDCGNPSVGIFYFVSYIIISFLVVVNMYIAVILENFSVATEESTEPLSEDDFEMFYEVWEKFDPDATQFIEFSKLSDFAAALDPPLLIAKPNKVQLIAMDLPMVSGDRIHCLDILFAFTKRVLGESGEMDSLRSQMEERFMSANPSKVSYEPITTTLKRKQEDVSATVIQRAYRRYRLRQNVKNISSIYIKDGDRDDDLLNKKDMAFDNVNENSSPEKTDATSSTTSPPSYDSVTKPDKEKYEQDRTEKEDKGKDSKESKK
T7 sequence (Q07699 19-218, further chain): as the sequence (Q07699 19-218, further chain) above

mouse sciatic nerves [1] = assay: epifluorescence imaging (IVIS Spectrum) of sciatic nerves and organs 30 min after injection; type: in vivo; conditions: 30 min
Description: Animal Model. Female athymic nude mice (4-8 week-old, athymic-Nude (outbred) (Stock #: 088; Envigo, USA) were allowed to acclimatize at the Memorial Sloan Kettering Cancer Center (MSK) vivarium for 1 week with ad libitum food and water prior to the experimental procedure. For imaging experiments, animals were sacrificed 30 min post-tail vein injection of Hs1a-FL, Hs1a/Hs1a-FL, Hsp1a-FL, Hsp1a/Hsp1a-FL, or PBS. All animal experiments were performed in accordance with institutional guidelines and approved by the IACUC of MSK, following NIH guidelines for animal welfare.
Epifluorescence Imaging. Animals were intravenously injected with Hsp1a-FL (7 nmol, 68 μM of Hsp1a-FL in 100 μL of PBS, n=9), or Hs1a-FL (4 nmol, 45 μM of Hs1a-FL in 100 μL of PBS, n=3). To assess the specificity of the Hsp1a-FL or Hs1a-FL accumulation, animals were injected with a combination of Hsp1a and Hsp1a-FL (Hsp1a-FL, 68 μM, 7 nmol and Hsp1a 204 μM, 21 nmol in 100 μL PBS, n=9), Hs1a and Hs1a-FL (Hs1a-FL, 45 μM, 4 nmol and Hs1a, 120 μM, 12 nmol in 100 μL PBS, n=3) or PBS (n=9). Animals were sacrificed 30 min post-injection and epifluorescence images obtained. Epifluorescence images of the right sciatic nerve (RSN) and the left sciatic nerve (LSN) were obtained in situ. Epifluorescence of the biodistribution of the peptides in excited RSN, LSN, muscle, heart, kidney, liver, and brain were acquired with IVIS Spectrum (PerkinElmer) using a predefined GFP filterset (e.g., excitation=465/30 nm, emission=520-580 nm) based on the particular fluorophore employed in the compounds. Autofluorescence was removed through spectral unmixing. Semiquantitative analysis of the Hsp1a-FL or Hs1a-FL signal was conducted by measuring the average radiant efficiency (in units of unit [p/s/cm^2/sr]/[μW/cm^2]) in regions of interest (ROIs) that were placed on all resected organs under white light guidance.

mouse sciatic nerves [2] = assay: confocal microscopy / histology of sciatic nerve sections after injection; type: in vivo; conditions: 30 min
Description: Confocal Microscopy. 5 or 10 μm cryosections of OCT-embedded sciatic nerve tissues from mice intravenously injected with Hsp1a-FL (7 nmol, 68 μM of Hsp1a-FL in 100 μL of PBS), Hsp1a/Hsp1a-FL (Hsp1a-FL, 68 μM, 7 nmol, and Hsp1a 204 μM, 21 nmol in 100 μL PBS), Hs1a-FL (4 nmol, 45 μM of Hs1a-FL in 100 μL of PBS), with the block Hs1a/Hs1a-FL (Hs1a-FL, 45 μM, 4 nmol and Hs1a 120 μM, 12 nmol in 100 μL PBS) or PBS were used to determine the distribution and localization of fluorescently-tagged peptide. Animal organs were incubated with Hoechst 33342 (blue, 20 μM, 1 nmol in 50 μL of PBS) to counterstain nuclei before embedding in Mowiol mounting medium. Fresh tissue samples were counterstained with 33342 (blue, 20 μM, 1 nmol in 50 μL of PBS) up to 90 min post-mortem and placed directly on a microscope slide for imaging.

hERG = hERG (Homo sapiens, UniProt Q12809); assay: Hs1a off-target voltage-gated potassium channel, hERG; type: cell-based
Description: Hs1a was isolated from the venom of the Chinese bird spider, Haplopelma schmidti. To assess the selectivity of Hs1a for Nav channel subtypes, Hs1a was tested on HEK cells stably transfected with human Nav1.1-Nav1.7 channels using automated patch clamp techniques. […] The IC50 value for hNav1.7 obtained in mammalian cells correlates with the IC50 obtained by two-electrode voltage clamp on hNav1.7 expressed in X. laevis oocytes. The selectivity of Hs1a for off-target voltage-gated calcium and potassium channels were also tested.

[3] = 4 nmol plus 12 nmol unmodified Hs1a

## CC(C)C[C@H](NC(=O)[C@H](CCCCN)NC(=O)CNC(=O)[C@H](CCCCN)NC(=O)[C@@H]1CSSC[C@@H]2NC(=O)[C@H](CCCCN)NC(=O)[C@H](CC(=O)O)NC(=O)[C@H](CC(N)=O)NC(=O)[C@H](CCCCNC(=O)CCCCC[N+]3=C(/C=C/C4=CC(=C/C=C5/N(C)c6ccc7ccccc7c6C5(C)C)/CCC4)C(C)(C)c4c3ccc3ccccc43)NC(=O)[C@@H]3CCCN3C(=O)[C@H](CC(N)=O)NC(=O)[C@@H]3CSSC[C@H](NC(=O)[C@H](C(C)C)NC(=O)[C@H](CC(C)C)NC(=O)[C@H](CC(N)=O)NC(=O)[C@H](C)NC(=O)[C@H](CSSC[C@H](NC(=O)[C@H](CC(=O)O)NC(=O)[C@H](CC(N)=O)NC(=O)CN)C(=O)N[C@@H](CC(C)C)C(=O)NCC(=O)N[C@@H](Cc4ccccc4)C(=O)N[C@@H](Cc4c[nH]c5ccccc45)C(=O)N[C@@H](CO)C(=O)N[C@@H](C)C(=O)N3)NC2=O)C(=O)N[C@@H](CO)C(=O)N[C@@H](CO)C(=O)N[C@@H](CCCCN)C(=O)N[C@@H](Cc2c[nH]cn2)C(=O)N[C@@H](CCCCN)C(=O)N[C@@H](Cc2c[nH]c3ccccc23)C(=O)N1)C(=O)O [Hs1a-FL]
hNav1.1
  IC50: 19.4 nM
hNav1.2
  IC50: 81.2 nM
hNav1.3
  IC50: 107 nM
hNav1.4
  IC50: > 3 µM
hNav1.5
  IC50: > 3 µM
hNav1.6
  IC50: 19.2 nM
hNav1.7
  IC50: 26.9 nM
Mouse sciatic nerves [1]; 4 nmol i.v. alone
  radiant efficiency, resected sciatic nerves: 1.6±0.3×10^5 [p/s/cm^2/sr]/[μW/cm^2]
Mouse sciatic nerves [1]; 4 nmol i.v.
  radiant efficiency, brain: 0.2±0.1×10^7 [p/s/cm^2/sr]/[μW/cm^2]
  radiant efficiency, kidney: 1.4±1.1×10^7 [p/s/cm^2/sr]/[μW/cm^2]
  radiant efficiency, liver: 3.0±2.0×10^7 [p/s/cm^2/sr]/[μW/cm^2]
  radiant efficiency, spleen: 0.8±0.5×10^7 [p/s/cm^2/sr]/[μW/cm^2]
Mouse sciatic nerves [1]; [3]
  radiant efficiency, resected sciatic nerves, co-injection (blocking): 0.09±0.03×10^5 [p/s/cm^2/sr]/[μW/cm^2]
Mouse sciatic nerves [2]; 4 nmol i.v. alone
  signal in sciatic nerve sections: confirmed the presence of Hs1a-FL signal
Mouse sciatic nerves [2]; [3]
  signal in sciatic nerve sections, blocked mice: No signal was detected

## CC(C)C[C@H](NC(=O)[C@H](CCCCN)NC(=O)CNC(=O)[C@H](CCCCN)NC(=O)[C@@H]1CSSC[C@@H]2NC(=O)[C@H](CCCCN)NC(=O)[C@H](CC(=O)O)NC(=O)[C@H](CC(N)=O)NC(=O)[C@H](CCCCN)NC(=O)[C@@H]3CCCN3C(=O)[C@H](CC(N)=O)NC(=O)[C@@H]3CSSC[C@H](NC(=O)[C@H](C(C)C)NC(=O)[C@H](CC(C)C)NC(=O)[C@H](CC(N)=O)NC(=O)[C@H](C)NC(=O)[C@H](CSSC[C@H](NC(=O)[C@H](CC(=O)O)NC(=O)[C@H](CC(N)=O)NC(=O)CN)C(=O)N[C@@H](CC(C)C)C(=O)NCC(=O)N[C@@H](Cc4ccccc4)C(=O)N[C@@H](Cc4c[nH]c5ccccc45)C(=O)N[C@@H](CO)C(=O)N[C@@H](C)C(=O)N3)NC2=O)C(=O)N[C@@H](CO)C(=O)N[C@@H](CO)C(=O)N[C@@H](CCCCN)C(=O)N[C@@H](Cc2c[nH]cn2)C(=O)N[C@@H](CCCCN)C(=O)N[C@@H](Cc2c[nH]c3ccccc23)C(=O)N1)C(=O)O [Hs1a]
hERG
  IC50: > 3000 nM
